Laboratory results as given in US4619939A, “Process for reducing intraocular pressure” (priority 1985, dated 1986).
Where two headings read alike, the source gives them in different places.

What was measured:
stability in solution = format: physicochemical
Source text: The final property which is necessary for a compound used in this invention is that it be stable against decomposition in solution and in contact with the cornea. This property may be tested by dissolving the compound in aqueous solution and in solution containing corneal tissue to determine whether the compound has remained stable or has decomposed into other materials.

[1] = first order rate constant for penetration through living rabbit cornea; format: in vivo
Method: Still another critical property of the inhibitor compounds employed in this invention is that the compound must have a first order rate constant for penetration of the compound through a living rabbit cornea of at least 0.005 hr^-1. This property is important in that it sets a standard for a speed in which the inhibitor will pass through the cornea to the interior of the eye and be available to inhibit the activity of carbonic anhydrase in that location. This is measured by placing a solution of the compound (about 0.5 ml) on the cornea of the living, lightly anesthetized rabbit. The lids are held by light hemostats in such a way as to create a well to hold the solution so that a steady state concentration is achieved. At timed intervals, samples are withdrawn from the anterior chamber of the rabbit and the fluid analyzed for the concentration of drug. The analyses are done by the method of Maren, supra. The data are treated to yield the first order rate constants which are cited herein.

[2] = pKa by titration with NaOH; format: physicochemical
Source text: The pKa may be measured by titrating the compound with NaOH and finding the point at which half of the compound is neutralized. The pH at this point is the pKa.

[3] = chloroform partition coefficient at pH 7.2; format: physicochemical
Method: Another critical property necessary in the inhibitors employed in this invention is the chloroform partition coefficient which must be at least 0.01. This property also relates to the lipid solubility of the compound employed and it is measured as described above with respect to ether. The procedure is the same as that described above except that chloroform is employed in place of ether.

injury to the cornea = format: in vivo; details: 2-5% solution
Source text: Still another critical property of the compounds employed in this invention is that they be pharmaceutically acceptable and not be injurious to the cornea being treated.

[4] = ether partition coefficient at pH 7.2; format: physicochemical
Method: This property in conjunction with the chloroform coefficient is a measure of the lipid solubility of this compound. This is a critical feature since the compound must be readily absorbed by the lipid materials in the eye and be available for intimate contact with carbonic anhydrase so as to control its activity. This property is measured by preparing an aqueous solution of the compound at pH 7.2 and shaking the solution with an equal volume of ether until equilibrium is achieved in the system. An ether layer and an aqueous layer are formed, separated, and each analyzed for its content of the compound. The coefficient is the ratio of the amount of the compound in the ether layer to the amount of the compound in the aqueous layer. See, e.g., Maren, J. Pharm. […] Therap. Vol. 130, p.

solubility in water = details: for ability to form an aqueous solution of sufficient concentration for topical use: near neutral pH
[5] = topical administration of prior art inhibitors, intraocular pressure; format: in vivo
[6] = Foss 1955; cited from earlier work
carbonic anhydrase = carbonic anhydrase (Homo sapiens, UniProt P00918); test: dissociation constant against carbonic anhydrase; format: biochemical
Source text: The dissociation constant is the concentration of the compound that will inhibit one-half of the carbonic anhydrase in a test system wherein the conditions are so arranged that the compound is present in excess of the carbonic anydrase.

Row | Structure (SMILES) | stability in solution (stability in solution) | in vivo rabbit cornea penetration rate constant [1] | pKa ([2]; read-out: pKa) | chloroform partition coefficient [3] | injury or clouding of the cornea (injury to the cornea) | ether partition coefficient [4] | pKa [2] | reduction of intraocular pressure by topical application [5] | ability to form an aqueous solution of sufficient concentration for topical use (solubility in water) | further results
1 | NS(=O)(=O)c1nnc(-c2ccccc2Cl)s1 [2-orthochlorophenylthiadiazole-5-sulfonamide] | stable in solution | 0.3 h⁻¹ | 7.3 |  |  |  |  |  |  | 
2 | Cn1nc(S(N)(=O)=O)sc1=NC(=O)C(F)(F)F [trifluoromethazolamide, 2-trifluoroacetylimino-3-methyl-Δ^2-1,3,4-thiadiazoline-5-sulfonamide] | stable in solution for two hours | 0.014 h⁻¹ |  | 0.3 | does not injure or cloud the cornea | 6.0 | 6.6 |  |  | 
3 | CCOc1ccc2nc(S(N)(=O)=O)sc2c1 [ethoxzolamide, 6-ethoxy-benzothiazole-2-sulfonamide] |  |  |  |  |  |  | 8.1 | ineffective |  | solubility (solubility in water; water): ≤ 40 µg/mL
4 | CC(=O)Nc1nnc(S(N)(=O)=O)s1 [acetazolamide, 2-acetylamino-1,3,4-thiadiazole-5-sulfonamide] |  |  |  |  |  |  |  |  | cannot be made into a water solution below pH 8 at concentrations sufficiently high | lowering intraocular pressure by topical administration [6]: completely unsuitable
5 | Cn1nc(S(N)(=O)=O)sc1=NC(=O)C(Cl)(Cl)Cl [trichloromethazolamide, 2-trichloroacetylimino-3-methyl-Δ^2-1,3,4-thiadiazoline-5-sulfonamide] | stable in solution for at least six hours | 0.063 h⁻¹ | 7 | 4 | does not injure or cloud the cornea | 56 |  |  |  | Ki (carbonic anhydrase): 20 nM
6 | CC(=O)/N=c1/sc(S(N)(=O)=O)nn1C [Methazolamide, 2-acetylimino-3-methyl-Δ^2-1,3,4-thiadiazoline-5-sulfonamide] |  |  |  |  |  |  | 7.4 | not reduced except to a very slight extent in one of the series of tests | cannot be made into a neutral solution with a sufficiently high concentration | 
